How the values were obtained:
[1] = test system: mitochondria ribosomal A-site (SEQ ID NO. 3); experiment: Quenching of F-neo by ribosomal A-site mimics, 96-well; assay type: binding; details: 0.1 μM RNA to 0.1 μM F-neo (42a); em 535 nm, ex 485 nm; ten wells averaged
Method: Disclosed is an HTS showing the difference in the binding affinity of fluorescene-neomycin (F-neo (42a)) to various synthetic RNA sequence 27 bases long designed to mimic the ribosomal A-site using a 96 well plate format and a fluorescent plate reader. Differences in binding are determined by the differential quenching of F-neo (42a) upon binding to the RNA.
Following the SOP's established for F-neo (42a) binding to E. coli A-site, each sequence was added at 0.1 μM RNA to 0.1 μM F-neo (42a) using 100 reads/well using a Tecan Genios Pro plate reader in a 96 well Greiner black plate. The emission was measured at wavelength 535 nm, using an excitation wavelength of 485 nm. All experiments were performed in 10 mM hepes (7.0), 50 mM NaCl, and 0.4 mM EDTA.

[2] = test system: E. coli ribosomal A-site oligonucleotide (SEQ ID No. 1); experiment: 96-well F-neo displacement HTS on ribosomal A-site; assay type: binding; details: 96-well plate reader; 0.30 mM F-neo and 0.3 mM A-site oligonucleotide
From the text: [drawing 24] where FHNeo represents the protonated form of F-neo. F(-)Neo, upon binding to nucleic acids such as DNA or RNA, is destabilized by the nucleic acid backbone negative potential, shifting the equilibrium towards FH, making F-neo a weaker acid, raising the pKa, which is what we observe upon binding to the A-site. For the A-site targeted assay, we calculated the Z' factor (Z=1-3(2.7+2.8)/(414-267)=0.89. […] Provided is a detailed example for the development of a HTS by the displacement of a fluorescene-neomycin (F-neo (42a)) from rRNA A-site oligonucleotide (SEQ ID No. 1) using a 96 well plate format and a fluorescent plate reader. […] This HTS involves the displacement of a fluorescene-neomycin (F-neo (42a)) by potential RNA binding molecules in a 96 well plate format using a fluorescent plate reader. […] F-neo based RNA binding assays have been performed using a fluorescence spectrophotometer with a 96-well plate reader and results recorded in FIG. 4. […] Fo is defined as the baseline fluorescence intensity of the RNA/F-neo complex and F is the intensity with added drug. The difference between the fluorescence intensity baseline of F-neo/A-site complex and complex with added drug (F-Fo) indicates the extent of the competition of drug for the binding site, this allows the relative binding affinities of aminoglycosides to be established. […]

[3] = test system: 16S A-site rRNA (SEQ ID No. 1); experiment: Competition dialysis; assay type: binding, E. coli; details: 100 nM ligand, 72 h dialysis, pH 7.0
From the text: (§1) Disclosed is the use of fluorescent aminosugar probes such as F-neo (42a) to probe a variety of nucleic acid targets. Competition dialysis was used as a nucleic acid screening technique to illustrate the binding of F-neo (42a) to different nucleic acid structures.
(§2) Competition dialysis studies using a fluorescein-neomycin conjugate (F-neo (42a)). […] Comparative binding of F-neo (42a) to 13 different nucleic acid structures was examined which included single strand nucleic acids [poly(dT), poly(A), poly(U)], duplexes [poly(dA).poly(dT), poly(rA).poly(dT), poly(rA).poly(rU), poly(dA).poly(rU), poly(dG).poly(dC), calf thymus], triplexes [poly(dA).2poly(dT), poly(rA).2poly(rU)], i-motif (polydC) and 16S A-site rRNA (SEQ ID No. 1). The amount of F-neo (42a) bound to each nucleic acid is shown as a bar graph in FIG. 13. Because all nucleic acids are dialyzed simultaneously in the same ligand solution, the amount of bound F-neo (42a) is directly proportional to its affinity for each nucleic acid. […] 200 μL of different nucleic acids (7.5 μM per monomeric unit of each polymer) was dialyzed for 72 h with 400 mL 100 nM ligand in 6 mM Na2HPO4, 2 mM NaH2PO4, 1 mM Na2EDTA, pH 7.0 and various Na+ concentrations as indicated.
F-neo (42a) prefers to bind to 16S A-site rRNA yielding a bound ligand concentration of 85 nM in 100 mM Na^+, 50 nM in 150 mM Na^+, and 15 nM in 200 mM Na^+ is shown in FIG. 15.

[4] = test system: DNA triplex poly(dA).2poly(dT); experiment: Competition dialysis; assay type: binding
From the text: as §1, §2
F-neo (42a) prefers to bind to 16S A-site rRNA yielding a bound ligand concentration of 85 nM in 100 mM Na^+, 50 nM in 150 mM Na^+, and 15 nM in 200 mM Na^+ is shown in FIG. 15. […]

For NCC1O[C@H](OC2C(O)C(OC3C(O)[C@H](N)CC(N)[C@H]3O[C@H]3OC(CN)[C@@H](O)C(O)C3N)O[C@@H]2CSCCNC(=O)CCSCC(=O)Nc2ccc(-c3c4ccc(=O)cc-4oc4cc(O)ccc34)c(C(=O)O)c2)C(N)C(O)[C@@H]1O (stereo partly shown) [F-neo (42a), Neomycin-Fluorescein Conjugate], the “fluorescence of F-neo with RNA” value [1] was 11987 (±445), the “reduction in fluorescence intensity on addition of A-site” value [2] was 2 fold and the bound ligand concentration ([3]; 100 mM Na^+) was 85 nM. The bound ligand concentration ([3]; 150 mM Na^+) was 50 nM, the bound ligand concentration ([3]; 200 mM Na^+) was 15 nM and the “binding to poly(dA).2poly(dT)” value ([4]; 100 mM Na^+, ambient temperature (˜22° C.), triplex not formed) was “absence of F-neo (42a) binding”. It also gave a bound drug ([4]; under these salt conditions (100-200 mM Na^+)) of 10 to 20 nM.
